Measurements as given in patent US7494821B2, “Fluorescein based sensors for tracking nitric oxide in live cells” (Massachusetts Institute of Technology, priority 2005, dated 2009).

Assay: Cu(II) binding of FL5 (UV-vis titration with CuCl2; fluorescence quenching)
Details: 1 μM FL5 solution, 37° C.
Experimental: Derivatized fluorescein molecules are excellent biosensors because they excite and emit in a region of the visible spectrum that is relatively free of interference. We prepared the fluorescein-based ligand FL5 (FIG. 4) by reacting 7′-chloro-4′-fluorescein-carboxaldehyde with 8-aminoquinaldine. We generated the Cu(II) fluorescein-based NO probe Cu(FL5) (FIG. 4) in situ reacting FL5 (prepared as described below) awith CuCl2 in a 1:1 ratio in buffered aqueous solution (50 mM PIPES, pH 7.0, 100 mM KCl). […] A Job's plot was constructed to evaluate the nature of the FL5:Cu(II) complex by following the UV-vis absorption spectral change at 512 nm in pH 7.0 buffered solution. A break at 0.5 indicated the formation of a 1:1 complex.
The fluorescence of a 1 μM FL5 solution was diminished by 18±3% upon introduction of an equimolar quantity of CuCl2 at 37° C. Addition of excess NO to a buffered aqueous Cu(FL5) solution led to an immediate 11.2±1.5-fold increase in fluorescence (FIG. 5). […] The lower detection limit for NO is 5 nM.

Cc1ccc2cccc(NCc3c(O)ccc4c(-c5ccccc5C(=O)O)c5cc(Cl)c(=O)cc-5oc34)c2n1 [FL5, 2-{2-chloro-6-hydroxy-5-[(2-methyl-quinolin-8-ylamino)-methyl]-3-oxo-3H-xanthen-9-yl}-benzoic acid]
fluorescence diminished upon introduction of equimolar CuCl2: 18±3%
